In patent US20170056621A1, “LOCAL ADMINISTRATION OF DRUGS FOR THE TREATMENT OF ASTHMA” (Mercator MedSystems, Inc., priority 2015, published 2017):

Tests used:
[1] = test system: porcine bronchi; assay: Toxicity and histopathological evaluation after injections in all lobes of the lungs of porcine subjects; format: in vivo
Method: Four porcine subjects were treated with two different drugs to test pharmacokinetics and toxicity in porcine bronchi. Dexamethasone was administered to 2 animals at low (1 mg/mL), medium (2 mg/mL), and high (4 mg/mL) doses. The other drug, α-1-antitrypsin (Alpha-1-antitrypsin or A1AT), was administered to the remaining animals at low (2 mg/mL), medium (10 mg/mL), and high (50 mg/mL) doses. The drugs were administered via injections in all lobes of the lungs at the varying dosages.
All animals survived until a scheduled termination and were sacrificed on day 30. All four animals had limited necropsies completed.
This group was comprised of 2 animals. Both animals received low dose treatment in the right upper and middle lung lobes, and mid dose treatment in the right lower lung lobe. One subject received high dose treatment in the left upper lung lobe. Another subject received high dose treatment in the left upper and lower lung lobes.
This group was comprised of 2 animals. Both animals received low dose treatment in the right upper and middle lung lobes, and mid dose treatment in the right lower lung lobe. One subject received high dose treatment in the left lower lung lobe, and the other received high dose treatment in the left upper lung lobe.

[2] = test system: bronchial walls; assay: Bronchial wall injections in a porcine subject: bronchoconstriction challenge and relief; format: in vivo; details: for Effect of injection into methacholine-narrowed segments (bronchodilation): 0.1 to 0.5 mL injected into narrowed bronchial segments
Method: In another animal study, one porcine subject was utilized. The animal received multiple injections in the bronchial wall of sub-selected bronchi. First injections of methacholine in concentrations of 0.3 or 3.0 mg/mL and volumes of 0.1 to 0.5 mL were made into bronchial walls throughout the airway tree.

[3] = oral administration, cited from earlier work
[4] = 0.3 or 3.0 mg/mL, 0.1 to 0.5 mL into bronchial walls

Molecule | Findings in bronchial or bronchiolar walls ([1]; pig, in vivo) | Gross or histopathological changes in the lung related to toxic effects ([1]; pig, in vivo) | Inflammatory cell infiltrates in lung sections (considered a background change) ([1]; pig, in vivo) | Effect of injection into methacholine-narrowed segments (bronchodilation) [2] | other results
α-1-antitrypsin [A1AT] | no abnormal findings | did not induce any gross or histopathological changes | minimal multifocal inflammatory cell infiltrates |  | Histopathological examination of the lung tissues ([1]; pig, in vivo): normal lung architecture
CC(C)(C)NC[C@H](O)c1ccc(O)c(CO)c1 [levalbuterol] |  |  |  | immediate bronchodilation | 
CC(=O)OC(C)C[N+](C)(C)C (centres unmarked) [methacholine] |  |  |  |  | Duration of bronchoconstriction [2, 4]: more than 30 minutes; Effect of injection on the airway (bronchoconstriction) [2, 4]: immediate bronchoconstriction
C[N+]1(C)[C@@H]2C[C@@H](OC(=O)C(O)(c3cccs3)c3cccs3)C[C@H]1[C@@H]1O[C@@H]12 [tiotropium bromide] |  |  |  | immediate bronchodilation | 
CN(Cc1cnc2nc(N)nc(N)c2n1)c1ccc(C(=O)N[C@@H](CCC(=O)O)C(=O)O)cc1 [MTX, Methotrexate] |  |  |  |  | Onset of action ([3]; patients): 4-6 weeks; Patients having some response [3]: 70%
C[C@@H]1C[C@H]2[C@@H]3CCC4=CC(=O)C=C[C@]4(C)[C@@]3(F)[C@@H](O)C[C@]2(C)[C@@]1(O)C(=O)CO [Dexamethasone] | no abnormal findings | did not induce any gross or histopathological changes | minimal multifocal inflammatory cell infiltrates |  | Histopathological examination of the lung tissues ([1]; porcine, injections in lung lobes at low, medium and high doses, sacrificed on day 30): normal lung architecture
